Laboratory results published in PubChem BioAssay AID1963830 (Molecular Pharmacology Branch, DTP, NCI, 2024).

Tested on: 922993-354-T-J3-PDC complex spheroid viability
Test: Anticancer human tumor 922993-354-T-J3-PDC patient-derived endometrial carcinoma cell line growth inhibition [POLQ]
Conditions: for IC50: curve of first compound; for viability, T/C: stronger effect = lower value
Method: Multicellular complex tumor spheroid response to Polymerase (POL) inhibitors (novobiocin, ART-558, RP6685) in combination with a variety of drugs and investigational agents in selected tumor cell lines
The POL inhibitors (novobiocin, ART-558, and RP6685) were evaluated both individually and in combination with standard of care and investigational anticancer small molecules within a complex spheroid model of solid tumors. . Complex spheroids include a stromal component modeled by human endothelial cells (HUVEC) and fibroblasts modeled by human mesenchymal stem cells (MSCs). The concentration ranges selected for each drug and investigational agent were based upon clinically achievable concentrations if the clinical Cmax of the agent was known.
Compounds. The drugs and investigational agents: novobiocin (NSC847541), ART-558 (NSC835418), RP-6685 (NSC848927), peposertib (NSC802822), ceralasertib (NSC780249), elimusertib (NSC800525), camonsertib (NSC841442), AZD-1390 (NSC803789), olaparib (NSC753686), talazoparib (NSC767125), rucaparib (NSC756644), sotorasib (NSC818433), MRTX-1133 (NSC836407), SN-38 (NSC673596), topotecan (NSC609699), epotoside (NSC141540), doxorubicin (NSC123127), gemcitabine (NSC613327), 5-fluorouracil (NSC19893), paclitaxel (NSC125973), vemurafenib (NSC761431), MSA-2 (NSC828583), SN-011 (NSC837082), adavosertib (NSC754352), prexasertib (NSC758257), carboplatin (NSC241240) and oxaliplatin (NSC266046), were obtained from the National Cancer Institute (NCI) Developmental Therapeutics Program Chemical Repository (21). The FDA-approved anticancer drug set is available from the Developmental Therapeutics Program at https://dtp.cancer.gov/organization/dscb/obtaining/. […] The stock solutions were prepared in dimethyl sulfoxide (DMSO, Sigma-Aldrich, St. Louis, MO, cat. D2650), except for the platinum compounds which were prepared in saline (Quality Biological, Gaithersburg, MD, cat. 114-055-101), at 800-fold the tested concentration and stored at -70 degrees C prior to their use. All drugs and investigational agents were tested over a range starting from a high concentration at or near the clinical Cmax and decreasing in half-log increments. If the clinical Cmax for an agent had not been determined, the highest concentration tested was 10 microM, except for SN-38, which was tested at a high concentration of 1 microM.
Cell Culture. All cells were maintained in an incubator at 37 degrees C and 5% CO2 with 95% humidity. The PDC lines were cultured according to standard operating procedures established by the NCI PDMR (https://pdmr.cancer.gov). Table 3 of the manuscript, lists the cell lines along with the number of the three cell types plated to form the mct-spheroids and media for tumor cell growth. After thawing, all PDC lines, except 997537-175-T-J1-PDC and 415267-285-R-J2-PDC, were cultured in Matrigel-coated flasks prepared with a working solution of 1X Ham's F-12 nutrient mix, without supplementation (Thermo Fisher Scientific, cat. 11765054), 100 U/mL penicillin-streptomycin (Thermo Fisher Scientific, cat. 15140122), and 2.5% Matrigel (Corning Inc., Corning, NY, cat. 354248) for the first three passages. The two PDC lines 997537-175-T-J1-PDC and 415267-285-R-J2-PDC were cultured on uncoated flasks. The 857933-349-R-J2-PDC line was cultured in 6C/Colon 1B media containing advanced DMEM/F-12 (Thermo Fisher Scientific, cat. 12634028), 10 mM HEPES (Thermo Fisher Scientific, cat. 15630080), 1X GlutaMAX supplement (Thermo Fisher Scientific, cat. 35050061), 0.1 mg/mL primocin (InvivoGen, San Diego, CA, cat. ant-pm-2), 10% defined fetal bovine serum, heat inactivated (HyClone Laboratories Inc., Logan, UT, cat. SH30070.03HI), 50% L-WRN conditioned media (ATCC, cat. CRL-3276), 1.25 mM N-Acetyl-L-cysteine (Sigma-Aldrich, cat. A9165), 10 mM nicotinamide (Sigma-Aldrich, cat. N0636), 1X B-27 supplement (Thermo Fisher Scientific, cat. 17504044), 1X N-2 supplement (Thermo Fisher Scientific, cat. […]

[1] = second compound 0.0316 µM, first compound 0.0316 µM
[2] = second compound 0.0316 µM, first compound 0.1 µM
[3] = second compound 0.1 µM, first compound 0.0316 µM
[4] = second compound 0.1 µM, first compound 0.1 µM
[5] = second compound 0.316 µM, first compound 0.0316 µM
[6] = second compound 0.316 µM, first compound 0.1 µM
[7] = second compound 1 µM, first compound 0.0316 µM
[8] = second compound 1 µM, first compound 0.1 µM
[9] = second compound 3.16 µM, first compound 0.0316 µM
[10] = second compound 3.16 µM, first compound 0.1 µM
[11] = second compound 10 µM, first compound 0.0316 µM
[12] = second compound 10 µM, first compound 0.1 µM
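Note: spheroids exposed to the agents for one week.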
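Throughout, for viability, T/C: 100% = DMSO vehicle control wells.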

**Q.** What does the source list for `CC[C@@]1(O)C(=O)OCc2c1cc1n(c2=O)Cc2cc3c(CN(C)C)c(O)ccc3nc2-1` + Nc1ccc(C#CCN(C(=O)Cc2ncc(C(F)(F)F)cc2C(F)(F)F)c2ccc(F)cc2)nn1?
**A.** IC50 (second compound 0.0316 µM): > 0.1 µM; IC50 (second compound 0.1 µM): > 0.1 µM; IC50 (second compound 0.316 µM): > 0.1 µM; IC50 (second compound 1 µM): > 0.1 µM; IC50 (second compound 3.16 µM): > 0.1 µM; IC50 (second compound 10 µM): 0.0547 µM; viability, T/C (second compound 0.0316 µM, first compound 0.000316 µM): 103%; viability, T/C (second compound 0.0316 µM, first compound 0.001 µM): 105%; viability, T/C (second compound 0.0316 µM, first compound 0.00316 µM): 99.4%; viability, T/C (second compound 0.0316 µM, first compound 0.01 µM): 101%; viability, T/C [1]: 100%; viability, T/C [2]: 89.5%; viability, T/C (second compound 0.1 µM, first compound 0.000316 µM): 102%; viability, T/C (second compound 0.1 µM, first compound 0.001 µM): 105%; viability, T/C (second compound 0.1 µM, first compound 0.00316 µM): 100%; viability, T/C (second compound 0.1 µM, first compound 0.01 µM): 102%; viability, T/C [3]: 102%; viability, T/C [4]: 87.2%; viability, T/C (second compound 0.316 µM, first compound 0.000316 µM): 105%; viability, T/C (second compound 0.316 µM, first compound 0.001 µM): 98.1%; viability, T/C (second compound 0.316 µM, first compound 0.00316 µM): 103%; viability, T/C (second compound 0.316 µM, first compound 0.01 µM): 98.9%; viability, T/C [5]: 103%; viability, T/C [6]: 81.1%; viability, T/C (second compound 1 µM, first compound 0.000316 µM): 105%; viability, T/C (second compound 1 µM, first compound 0.001 µM): 103%; viability, T/C (second compound 1 µM, first compound 0.00316 µM): 100%; viability, T/C (second compound 1 µM, first compound 0.01 µM): 99.2%; viability, T/C [7]: 96%; viability, T/C [8]: 82.2%; viability, T/C (second compound 3.16 µM, first compound 0.000316 µM): 101%; viability, T/C (second compound 3.16 µM, first compound 0.001 µM): 102%; viability, T/C (second compound 3.16 µM, first compound 0.00316 µM): 103%; viability, T/C (second compound 3.16 µM, first compound 0.01 µM): 94.5%; viability, T/C [9]: 92.9%; viability, T/C [10]: 72.9%; viability, T/C (second compound 10 µM, first compound 0.000316 µM): 100%; viability, T/C (second compound 10 µM, first compound 0.001 µM): 91.3%; viability, T/C (second compound 10 µM, first compound 0.00316 µM): 97%; viability, T/C (second compound 10 µM, first compound 0.01 µM): 92.9%; viability, T/C [11]: 71.8%; viability, T/C [12]: 25.9%

**Q.** Which IC50 (second compound 0.0316 µM) does the source give for `CNCc1ccc(-c2[nH]c3cc(F)cc4c3c2CCNC4=O)cc1` + Nc1ccc(C#CCN(C(=O)Cc2ncc(C(F)(F)F)cc2C(F)(F)F)c2ccc(F)cc2)nn1 here?
**A.** Its IC50 is > 10 µM.

**Q.** What about the IC50 (second compound 0.1 µM) of the same molecule?
**A.** The IC50 was > 10 µM.

**Q.** What about the IC50 (second compound 0.316 µM) of the same molecule?
**A.** The IC50 was > 10 µM.

**Q.** And the IC50 (second compound 1 µM)?
**A.** Its IC50 is > 10 µM.

**Q.** And the IC50 (second compound 3.16 µM)?
**A.** The IC50 was > 10 µM.

**Q.** What about the IC50 (second compound 10 µM) of the same molecule?
**A.** The IC50 was > 10 µM.

**Q.** What about the viability, T/C [1] of the same molecule?
**A.** The viability, T/C was 101%.

**Q.** What about the viability, T/C [2] of the same molecule?
**A.** The viability, T/C was 98.2%.

**Q.** And the viability, T/C (second compound 0.0316 µM, first compound 0.316 µM)?
**A.** The viability, T/C was 98.2%.

**Q.** And the viability, T/C (second compound 0.0316 µM, first compound 1 µM)?
**A.** Its viability, T/C is 97%.

**Q.** And the viability, T/C (second compound 0.0316 µM, first compound 3.16 µM)?
**A.** Its viability, T/C is 96.1%.

**Q.** And the viability, T/C (second compound 0.0316 µM, first compound 10 µM)?
**A.** Its viability, T/C is 90.5%.

**Q.** What about the viability, T/C [3] of the same molecule?
**A.** Its viability, T/C is 103%.

**Q.** What about the viability, T/C [4] of the same molecule?
**A.** Its viability, T/C is 99%.

**Q.** What about the viability, T/C (second compound 0.1 µM, first compound 0.316 µM) of the same molecule?
**A.** Its viability, T/C is 99.9%.

**Q.** And the viability, T/C (second compound 0.1 µM, first compound 1 µM)?
**A.** Its viability, T/C is 101%.

**Q.** And the viability, T/C (second compound 0.1 µM, first compound 3.16 µM)?
**A.** Its viability, T/C is 97.3%.

**Q.** What about the viability, T/C (second compound 0.1 µM, first compound 10 µM) of the same molecule?
**A.** The viability, T/C was 92.5%.

**Q.** What about the viability, T/C [5] of the same molecule?
**A.** Its viability, T/C is 97.3%.

**Q.** And the viability, T/C [6]?
**A.** The viability, T/C was 99.2%.

**Q.** What about the viability, T/C (second compound 0.316 µM, first compound 0.316 µM) of the same molecule?
**A.** Its viability, T/C is 97%.

**Q.** What about the viability, T/C (second compound 0.316 µM, first compound 1 µM) of the same molecule?
**A.** Its viability, T/C is 96%.

**Q.** And the viability, T/C (second compound 0.316 µM, first compound 3.16 µM)?
**A.** The viability, T/C was 102%.

**Q.** What about the viability, T/C (second compound 0.316 µM, first compound 10 µM) of the same molecule?
**A.** The viability, T/C was 91.8%.

**Q.** What about the viability, T/C [7] of the same molecule?
**A.** The viability, T/C was 104%.

**Q.** And the viability, T/C [8]?
**A.** Its viability, T/C is 96.4%.

**Q.** And the viability, T/C (second compound 1 µM, first compound 0.316 µM)?
**A.** Its viability, T/C is 94.7%.

**Q.** What about the viability, T/C (second compound 1 µM, first compound 1 µM) of the same molecule?
**A.** The viability, T/C was 102%.

**Q.** What about the viability, T/C (second compound 1 µM, first compound 3.16 µM) of the same molecule?
**A.** Its viability, T/C is 97.3%.

**Q.** What about the viability, T/C (second compound 1 µM, first compound 10 µM) of the same molecule?
**A.** The viability, T/C was 94.9%.

**Q.** What about the viability, T/C [9] of the same molecule?
**A.** The viability, T/C was 97.3%.

**Q.** What about the viability, T/C [10] of the same molecule?
**A.** The viability, T/C was 100%.

**Q.** What about the viability, T/C (second compound 3.16 µM, first compound 0.316 µM) of the same molecule?
**A.** The viability, T/C was 101%.

**Q.** And the viability, T/C (second compound 3.16 µM, first compound 1 µM)?
**A.** Its viability, T/C is 93.9%.

**Q.** What about the viability, T/C (second compound 3.16 µM, first compound 3.16 µM) of the same molecule?
**A.** Its viability, T/C is 95.9%.

**Q.** And the viability, T/C (second compound 3.16 µM, first compound 10 µM)?
**A.** Its viability, T/C is 89.6%.

**Q.** And the viability, T/C [11]?
**A.** Its viability, T/C is 95.5%.

**Q.** And the viability, T/C [12]?
**A.** Its viability, T/C is 96.9%.

**Q.** And the viability, T/C (second compound 10 µM, first compound 0.316 µM)?
**A.** Its viability, T/C is 91.9%.

**Q.** What about the viability, T/C (second compound 10 µM, first compound 1 µM) of the same molecule?
**A.** Its viability, T/C is 93%.

**Q.** What about the viability, T/C (second compound 10 µM, first compound 3.16 µM) of the same molecule?
**A.** Its viability, T/C is 89.6%.

**Q.** And the viability, T/C (second compound 10 µM, first compound 10 µM)?
**A.** The viability, T/C was 69.9%.
